In the SangsterLogP compilation:

Test: method code SF, from Hansch, C. & Leo, A. (1987). Log P database [Dataset]. Pomona College Medicinal Chemistry Project.
Conditions: not given

SMILES	logP
O=C(COc1ccccc1)N1CCCCC1	1.81
CC1CCC(=O)CC1	1.38
CC(C)n1cc(C(C)(C)C)nc1SSc1nc(C(C)(C)C)cn1C(C)C	4.1
O=C(O)COc1ccc(Cl)c(C(=O)O)c1	1.07
N#C/C=C/c1ccccc1	1.96
CC(F)F	0.75
O=C(O)c1cc(=O)c2c(OCC(O)COc3cccc4oc(C(=O)O)cc(=O)c34)cccc2o1	1.92
ON=C(c1ccccc1)c1ccccc1	3.2
Cc1ccoc1CN(C)C	1.63
CCOC(=O)c1cccnc1	1.34
CN(C)C(=S)NCc1ccccc1	1.59
CNC(=O)Oc1cc(C)c(Cl)cc1C	2.95
CN(C)/N=N/c1cccc(Cl)c1	3.44
c1ccn2nnnc2c1	-0.09
CN(C(=O)COc1ccccc1)c1ccccc1	2.25
Nc1c2ccccc2nc2ccccc12	2.74
Cc1nn(-c2ccccc2)c(C)c1N=O	2.28
O=C(Nc1ccc(Cl)c(Cl)c1)C(F)F	3.18
CCCCC1OC(=O)c2cc(NC(C)=O)ccc21 (stereo not drawn)	2.77
CC(=O)C(=Cc1ccc(Cl)cc1)C(C)=O	2.32
C=CC=C	1.99
NS(=O)(=O)c1ccc(C(=O)c2ccncc2)cc1	0.56
O=c1[nH]cc(C(F)(F)F)c(=O)[nH]1	0.04
C=CC=O	-0.01
NC(=O)Cc1ccsc1	0.31
NS(=O)(=O)Nc1ccccc1	0.4

SMILES	logP
Cc1cccc(C)c1[N+](=O)[O-]	2.95
c1ccc(-c2cccs2)cc1	3.74
Cc1ccc2cccnc2c1	2.47
CC(O)CCC(=O)c1ccoc1 (stereo not drawn)	0.84
CCCCS	2.28
COc1cc(/C=N/O)ccc1OCCOC(=O)c1ccc(Cl)cc1	3.92
OCc1cccc(C(F)(F)F)c1	2.24
[N-]=[N+]=Nc1ccccc1	2.59
CC1=Nc2ccc(Br)cc2S(=O)(=O)N1	1.37
CC(=O)Nc1cn[nH]c1	-0.38
CCOC(=O)C(=Cc1ccccc1F)C(=O)OCC	3.04
CN(C)C(=O)Oc1ccccc1[N+](=O)[O-]	1.35
O=S1(=O)NC(C2CC3C=CC2C3)=Nc2ccccc21 (stereo not drawn)	2.06
CCOC(=O)C(=Cc1ccc(Br)cc1)C(=O)OCC	4.02
FC(F)(F)Br	1.86
CCC(C)NC(=O)C=C(c1ccc(Cl)cc1)C(C)C (stereo not drawn)	4.03
CNC(=O)Oc1cccc(Cl)c1Cl	2.48
O=S1(=O)NC(Cc2ccccc2)=Nc2ccccc21	1.89
C=CCNC(=O)NCC=C	0.64
CCCCCc1ccc(O)cc1	4.06
CN(C)c1cccc(C(N)=O)c1	0.95
CC(=O)Nc1cccc(I)c1	2.64
COc1ccc2[nH]c(CCc3nc4cc(OC)ccc4[nH]3)nc2c1	1.14
COc1ccccc1C	2.74
C/C=C/c1ccccc1	3.35
COc1cn[nH]c1	0.37

SMILES	logP
CCC(CC)C1=Nc2ccccc2S(=O)(=O)N1	1.88
O=C(NCc1ccccc1)c1ccco1	1.81
NC(=O)c1cccc(OC(=O)CNC(=O)c2ccccc2)c1	1.2
NC(=O)c1ccc(I)cc1	1.99
COc1cccc(NC(C)=O)c1	1.28
Nc1cc(OCC(=O)O)ccc1Cl	1.16
N#Cc1c(N)sc2ccccc12	2.17
CCC1(c2ccccc2)NC(=O)NC1=O (stereo not drawn)	1.53
O=S1(=O)NC(C(Cl)Cl)=Nc2cc(Cl)ccc21	1.81
Cc1c(-c2ccccc2)oc2ccccc2c1=O	3.92
NC(=O)c1ccc(N)cc1	-0.41
OC1OC[C@H](O)[C@H](O)[C@H]1O (stereo partly drawn)	-3.02
COc1ccc(/N=N/N(C)C(C)=O)cc1	2.61
CC(=O)Oc1ccccc1[N+](=O)[O-]	1.55
Cc1ccco1	1.85
COc1cccc(C(N)=O)c1	0.85
COc1ccccc1C(=O)N(C)C	0.71
CN(C(=O)CCCl)c1ccc(S(=O)(=O)N(C)C)cc1	0.98
N#CCc1ccsc1	1.26
CN(C)/N=N/c1cn([C@@H]2O[C@H](CO)[C@@H](O)[C@H]2O)c(=O)[nH]c1=O	-1.82
O=C(O)CCS	0.43
COC(=O)CNC(=O)c1ccc(N)cc1	-0.23
CC(=O)Nc1ccc(CN(C)/N=N/c2ccc(C(=O)O)cc2)cc1	3.35
CC(Cl)(Cl)Cl	2.49
CC(=O)Nc1ccccc1[N+](=O)[O-]	1.05
CC(=O)OC1CCCC(NC(=O)N(CCF)N=O)C1 (stereo not drawn)	1.33

SMILES	logP
Cc1ccc(CO)cc1	1.59
N#Cc1ccc(C(N)=O)cc1	0.48
COC(=O)C(=Cc1ccccc1)C(=O)OC	2.24
O=S(=O)(NO)c1ccccc1	0.48
CCC=O	0.59
O=[N+]([O-])c1ccc2[nH]c(CCCCCCc3nc4cc([N+](=O)[O-])ccc4[nH]3)nc2c1	1.51
N#Cc1cccc(N)c1	1.07
CCOP(=O)(OCC)SCS(=O)CC (stereo not drawn)	1.69
CC(=O)Oc1ccc(N=C2C=CC(=O)C=C2)cc1	1.43
O=C(OC(=O)c1ccccc1)c1ccccc1	2.26
CN(C)/N=N/c1ccc(C#N)cc1	2.35
CCOC(=O)CCc1ccccc1	2.73
O=S(=O)(N=[N+]([O-])c1ccccc1)c1ccccc1	2.33
O=C(Nc1ccccc1)C(F)(F)F	2.21
CN(C(=O)CCS(C)=O)c1ccc(S(=O)(=O)N(C)C)cc1 (stereo not drawn)	-0.67
CC(C)(C)C	3.11
O=C1OC(C2CCCCC2)c2ccccc21 (stereo not drawn)	3.34
CN(C)c1nc2ccccc2o1	2.1
C=COCC	1.04
CCc1ccc2c(c1)C(=O)c1ccc(NC(C)=O)cc1S2(=O)=O	3.44
NC(=O)c1cccs1	0.52
CCOC(=Cc1ccccc1)C(=O)NC(C)CC (stereo not drawn)	3.2
CC(C)c1ccccc1SCc1c(O)c(C(=O)O)cc2ccccc12	5.06
CCC(=O)O[C@]1(C(=O)CO)[C@H](C)C[C@H]2[C@@H]3C[C@H](F)C4=CC(=O)C(Cl)=C[C@]4(C)[C@@]3(F)[C@@H](O)C[C@@]21C	2.99

Same assay, conditions: pH 0.7

SMILES	logD
O=C(O)c1cc(=O)c2ccccc2o1	1.63

Same assay, conditions: pH 1.0

SMILES	logD
O=C(O)CNC(=O)c1ccccc1	0.31
NS(=O)(=O)c1ccc(C(=O)O)cc1	0.5

Same assay, conditions: pH 3.0

SMILES	logD
CC(=O)OCC1=C(C(=O)O)N2C(=O)C(NC(=O)C(O)c3ccccc3)C2SC1 (stereo not drawn)	-0.44

Same assay, conditions: pH 7.0

SMILES	logD
O=CNc1cccc([N+](=O)[O-])c1	1.4
NC(=O)c1ccc(N)nc1	0.7
COC(=O)c1ccc(C(=O)OC)cc1	2.25
CN(C)c1ccc([N+](=O)[O-])cc1	2.27

Same assay, conditions: pH 7.4

SMILES	logD
Cc1c(N2CCCC2)c(=O)n(-c2ccccc2)c(=O)n1C	2.26
Cc1c(N(C)C)c(=O)n(C)c(=O)n1C	0.99
Nc1n[nH]c(N)n1	-1.61
OC[C@H]1O[C@@H](n2cnc3c(=S)nc[nH]c32)[C@H](O)[C@@H]1O	-0.6

Same assay, conditions: pH 7.5

SMILES	logD
CC1OC(C)OC(C)O1 (stereo not drawn)	0.67

Same assay, conditions: pH 13.0

SMILES	logD
Nc1nc(N)c2ncn(COCCO)c2n1	-1.06
CC(=O)Nc1cccc(OCc2cccc(/N=C(\N)N=C(N)N)c2)c1	1.82
NCc1ccc([N+](=O)[O-])cc1	1.06
